pIC50: −log10 of the molar value.

The test system of assay [1] is rtL180M +M204V and rtN236T. Particulars: cited from earlier work.
The subject of assay [2] is HBV wild strain. Description: Drug sensitivity test: HepG2 cells transiently transfected with wild-type HBV plasmid, intracellular replication intermediates by Southern blotting. The assay is classed as cell-based. Conditions: Hepatitis B virus, 168 h, HBV replication intermediates in cytoplasm, Southern blotting gray values, treated 7 days, read-out: half maximal inhibitory concentration (IC50) for the wild strain. As for the experimental part: (§1) After recovery, Human hepatoma cell strain HepG2 grew as the adherent monolayer cells in the DMEM medium with 10% fetal bovine serum at 37° C. in 5% CO2. Every 3 to 5 days, cells were passaged one generation in a ratio of 1:3. 24 hours before transfection, cells were inoculated in an appropriate amount (about 2×10^5 per well in a 6-well plate). Preferably, cell density was 40 to 60% for transfection (also, 80 to 90% as well). 1 hour before transfection, the medium was replaced with fresh complete culture medium (2 ml per well), and incubated at 37° C. in 5% CO2. To each well, for example, saline for injection was added to 2 μg of DNA to make a total volume of 100 μl, followed by mixing gently and standing at room temperature. Saline for injection was added to 2 μl of VigoFect to make a total volume of 100 μl, followed by mixing gently and standing at room temperature for 5 minutes. The diluted VigoFect was added to the diluted DNA solution dropwise, mixed gently, followed by keeping the resultant working solution for transfection stand at room temperature for 15 minutes. The transfection working solution was mixed gently and 2 ml of medium was added thereto dropwise, mixed gently and then incubated at 37° C. in 5% CO2. 2 days after transfection, the medium was replaced and ADV were added thereto with the final concentrations of 0, 0.01, 0.1, 1, 5, 10 and 20 μM. […]

Assay [3] has as its system HBV rtE218G mutant strain. Description: Drug sensitivity test: HepG2 cells transiently transfected with rtE218G mutagenic HBV plasmid, intracellular replication intermediates by Southern blotting. Format: cell-based, hepatitis B virus. As to the method: as §1

On to `Nc1ncnc2c1ncn2CCOCP(=O)(O)O` [adefovir], for which the “decrease of sensitivity of combined three mutations compared with rtN236T single mutation” value in assay [1] was 2 folds. The pIC50 in assay [2] is 5.77; in assay [3] (Hepatitis B virus, 168 h, HepG2 cells, HBV replication intermediates in cytoplasm, Southern blotting gray values, treated 7 days, read-out: half maximal inhibitory concentration (IC50) for the rtE218G mutant strain), 5.03. Moreover, in assay [3] (ratio mutant IC50 / wild IC50), the “IC50 of rtE218G mutant strain relative to that of the wild strain” value came out at 5.5 times.
